Results reported in patent publication US6682920B1, “Compositions and methods for identifying PKB kinase inhibitors” (Onyx Pharmaceuticals, Inc., priority 1997, dated 2004).
“Also recorded” adds a separate entry of the source.

Experiments:
PKB kinases [1] = experiment: Association of PKB kinases with sucrose-loaded lipid vesicles containing inositol phospholipids; type: binding, sheep
Experimental: To assay association of PKB and PKB kinases with lipid vesicles and the effects of different lipids on the phosphorylation of PKB, the lipid vesicles were prepared by: sonicating dry lipid films into 0.2 M sucose; 20 mM KCl; 20 mM HEPES, pH 7.4 30° C.; 0.01% azide (to give 200 μM phosphatidylcholine, 150 μM phosphatidylserine, 20 μM phosphatidylethanolamine, 10 μM spingomylin plus the indicated concentrations of inositol lipids final in the assay. These were mixed with the relevant kinases in an assay buffer containing 1 mgml^−1 BSA; 0.12 M NaCl; 1 mM EGTA; 0.2 mM calcium; 1.5 mM MgCl2; 1 mM DTT; 0.01% azide; 5 mM KCl; 20 mM HEPES, pH 7.4, 30° C. (approx. 50 nM free calcium, all final concentrations in assay) with or without [γ^32P]-ATP (1 μM final concentration) and (EE)-PKB (2.5 μM final concentration). If the assays were to estimate associated of the kinases with the lipid vesicles then after 4 mins at 30° C. the assays were centrifuged (airfuge (Beckman) maximum speed for 30 mins). Aliquots of the supernatents were removed for assays or immunoblotting. […] Phosphorylation of PKB(s) were quantitated as described above. […]
Under the same assay conditions used for the PKB phosphorylation studies, we investigated the association of both the PKB kinases and PKB itself (FIG. 2C) with the lipid vesicles in these assays. […] Phosphorylation of PKB(s) was quantitated as described herein.

PKB kinases A-D = experiment: PtdIns lipid-dependent phosphorylation and activation of PKB by purified PKB kinases (lipid vesicle assay); type: biochemical, sheep; conditions: mixed lipid vesicles, (EE)-PKB 2.5 μM, [γ32P]-ATP; FIG. 2A/2B
Experimental: Assays were run in 2 stages. The first stage was run with mixed lipid vesicles either with or without D-D-S/A-PtdIns(3,4,5)P3 (final concentration 5 μM) and in the presence or absence of PKB kinase A (6 nM), wild-type (EE)-PKB (2.5 μM) or T308A/S473A-(EE)-PKB) and [γ^32P]-ATP (50 μM). The assays were stopped and PKB proteins were immunoprecipitated with α(EE)-beads, washed then incubated with [γ^32P]-ATP (10 μM) and myelin basic protein (MBP; 7 μM) to determine the activity of the immobilized PKB. The results are from a single experiment and are represented as means±SE(n=3-5); four further experiments gave similar results. PKB kinases B, C and D gave very similar results.
Assays contained; a constant concentration of mixed lipid vesicles containing the indicated concentrations of inositol phospholipids, (EE)-PKB (2.5 μM), PKB kinase A (5 nM) and [γ^32P]-ATP (1 μM, total volume 12 μl). The data shown are pooled from 12 separate experiments and are means (n=3-6, their average se was 6%).
To assay association of PKB and PKB kinases with lipid vesicles and the effects of different lipids on the phosphorylation of PKB, the lipid vesicles were prepared by: sonicating dry lipid films into 0.2 M sucose; 20 mM KCl; 20 mM HEPES, pH 7.4 30° C.; 0.01% azide (to give 200 μM phosphatidylcholine, 150 μM phosphatidylserine, 20 μM phosphatidylethanolamine, 10 μM spingomylin plus the indicated concentrations of inositol lipids final in the assay. These were mixed with the relevant kinases in an assay buffer containing 1 mgml^−1 BSA; 0.12 M NaCl; 1 mM EGTA; 0.2 mM calcium; 1.5 mM MgCl2; 1 mM DTT; 0.01% azide; 5 mM KCl; 20 mM HEPES, pH 7.4, 30° C. (approx. 50 nM free calcium, all final concentrations in assay) with or without [γ^32P]-ATP (1 μM final concentration) and (EE)-PKB (2.5 μM final concentration). If the assays were to estimate associated of the kinases with the lipid vesicles then after 4 mins at 30° C. the assays were centrifuged (airfuge (Beckman) maximum speed for 30 mins). Aliquots of the supernatents were removed for assays or immunoblotting. The pellets were rinsed rapidly with assay buffer, recentrifuged and dissolved in SDS-sample buffer. Phosphorylation of PKB(s) were quantitated as described above. […]

[2] = molecular target: (EE)-PKB, EE-tagged protein kinase B purified from SF9 cells (UniProt P31749)
PKB kinases [3] = experiment: Phosphorylation of a water-soluble 30-mer peptide based on the PKB sequence around Thr308 by PKB kinases; type: biochemical, sheep; conditions: not shown
[4] = molecular target: (EE)-PKB, EE-tagged protein kinase B purified from SF9 cells, P31749
Sequence of (EE)-PKB, EE-tagged protein kinase B purified from SF9 cells, P31749 (P31749 whole entry, looked up): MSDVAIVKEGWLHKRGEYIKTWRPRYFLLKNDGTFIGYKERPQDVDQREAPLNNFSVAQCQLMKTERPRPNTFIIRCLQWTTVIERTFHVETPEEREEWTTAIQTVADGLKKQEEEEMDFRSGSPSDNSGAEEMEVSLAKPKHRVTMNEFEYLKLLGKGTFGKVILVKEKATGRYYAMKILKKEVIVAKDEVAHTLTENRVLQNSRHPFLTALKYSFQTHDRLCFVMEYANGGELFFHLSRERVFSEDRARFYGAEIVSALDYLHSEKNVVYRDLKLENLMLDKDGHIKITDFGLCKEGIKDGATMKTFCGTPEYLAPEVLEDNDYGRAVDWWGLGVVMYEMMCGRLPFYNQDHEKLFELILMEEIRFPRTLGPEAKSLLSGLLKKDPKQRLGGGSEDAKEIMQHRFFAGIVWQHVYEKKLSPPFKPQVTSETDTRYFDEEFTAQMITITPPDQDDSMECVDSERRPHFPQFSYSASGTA

CCCCCCCCCCCCCCCC(=O)OC[C@H](COP(=O)(O)O[C@H]1[C@H](O)[C@@H](O)[C@H](OP(=O)(O)O)[C@@H](OP(=O)(O)O)[C@H]1O)OC(=O)CCCCCCCCCCCCCCC [D-D-P/P-PtdIns(3,4)P2]
association of PKB kinases with lipid vesicles containing the lipid (PKB kinases [1]; 4 mins at 30° C., vesicles pelleted by centrifugation): associated with the lipid vesicles

CCCCC/C=C\C/C=C\C/C=C\C/C=C\CCCC(=O)OC(COC(=O)CCCCCCCCCCCCCCCCC)COP(=O)(O)OC1C(O)C(OP(=O)(O)O)C(OP(=O)(O)O)C(OP(=O)(O)O)C1O [D-D-S/A-PtdIns(3,4,5)P3, (1-stearoyl, 2-arachidonyl) snphosphatidyl D-myo-inositol (3,4,5)-trisphosphate]
PKB kinase phosphorylation/activation of PKB in the presence of the lipid (PKB kinases A-D): phosphorylate and activate; also recorded: equally effectively activated | molar percentage of the lipid in vesicles at which PKB kinases associated (PKB kinases [1]; very low molar percentages): 0.003%

CCCCC/C=C\C/C=C\C/C=C\C/C=C\CCCC(=O)OC(COC(=O)CCCCCCCCCCCCCCCCC)COP(=O)(O)OC1C(O)C(OP(=O)(O)O)C(OP(=O)(O)O)C(OP(=O)(O)O)C1O [D-L-S/A-PtdIns(3,4,5)P3, (2-arachidonyl, 3-stearoyl) sn-phosphatidyl D-myoinositol(3,4,5)-trisphosphate]
PKB kinase phosphorylation/activation of PKB in the presence of the lipid (PKB kinases A-D): equally effectively activated

PKB kinase A purified from sheep brain cytosol
phosphorylation and activation of PKB (activation judged by myelin basic protein phosphorylation) [2]: All four activities phosphorylate and activate (as judged by mylein basic protein (MBP) phosphorylation) PKB in the presence of the biological stereoisomers of PtdIns(3,4,5)P3 or PtdIns(3,4)P2

phosphatidylinositol4,5-bisphosphate [PtdIns(4,5)P2]
PKB kinase phosphorylation/activation of PKB in the presence of the lipid (PKB kinases A-D): inactive against PKB

phosphatidylinositol-3,4,5-triphosphate [PtdIns(3,4,5)P3]
effect of the lipid on phosphorylation of 30-mer PKB Thr308 peptide (PKB kinases [3]): dramatically inhibited

phosphatidylinositol-3,4-bisphosphate [PtdIns(3,4)P2]
PKB kinase phosphorylation/activation of PKB in the presence of the lipid (PKB kinases A-D): phosphorylate and activate | effect of the lipid on phosphorylation of 30-mer PKB Thr308 peptide (PKB kinases [3]): dramatically inhibited

B1: (EE)-II, N-terminally EE-tagged 55 kd PKB kinase (complete ORF of FIG. 3) expressed in cos-7 cells (protein)
chain: MARTTSQLYDAVPIQSSVVLCSCPSPSMVRSQTESSTPPGIPGGSRQGPAMDGTAAEPRPGAGSLQHAQPPPQPRKKRPEDFKFGKILGEGSFSTVVLARELATSREYAIKILEKRHIIKENKVPYVTRERDVMSRLDHPFFVKLYFTFQDDEKLYFGLSYAKNGELLKYIRKIGSFDETCTRFYTAEIVSALEYLHGKGIIHRDLKPENILLNEDMHIQITDFGTAKVLSPESKQARANSFVGTAQYVSPELLTEKSACKSSDLWALGCIIYQLVAGLPPFRAGNEYLIFQKIIKLEYDFPEKFFPKARDLVEKLLVLDATKRLGCEEMEGYGPLKAHPFFESVTWENLHQQTPPKLTAYLPAMSEDDEDCYGNYDNLLSQFGCMQVSSSSSSHSLSASDTGLPQRSGSNIEQYIHDLDSNSFELDLQFSEDEKRLLLEKQAGGNPWHQFVENNLILKMGPVDKRKGLFARRRQLLLTEGPHLYYVDPVNKVLKGEIPWSQELRPEAKNFKTFFVHTPNRTYYLMDPSGNAHKWCRKIQEVWRQRYQSHPDAAVQ
PKB kinase activity ([32P] in PKB, autoradiogram) [4]: The protein with the intact protein kinase domain phosphorylated PKB in a PtdIns(3,4,5)P3-sensitive manner
